Reference: patent US20200291100A1, “TREATMENT OF AGE-RELATED AND MITOCHONDRIAL DISEASES BY INHIBITION OF HIF-1 ALPHA FUNCTION” (President and Fellows of Harvard College, priority 2012, published 2020)

What was measured:
TFAM promoter = TFAM promoter luciferase assay in primary WT myoblasts treated with DMOG; type: cell-based, mouse; details: DMOG versus DMSO
Method: TFAM promoter, VHL promoter, HRE and c-Myc activity were determined using a luciferase-based system. Luciferase activity was measured using the Dual-Luciferase Reporter Assay System (Promega) with Renilla as the reference.
TFAM promoter activity was evaluated using a TFAM promotes-luc plasmid. A fragment of the mouse Tfam promoter (1.4 kb upstream of the coding sequence) was cloned into a pGL4.15 vector (Promega). Luciferase activity was measured using the Dual-Luciferase Reporter Assay System (Promega) with Renilla as the reference 48 h after transfection.
c-Myc was previously shown to directly bind to the TFAM promoter in cancer cells (Li et al., 2005) and consistent with this report, it was observed that knockdown of c-Myc in primary myoblasts leads to decreased TFAM promoter activity (FIG. 16E). Mutation of the c-Myc consensus sequence, CACGTG, present in the TFAM promoter decreased the promoter activity by about half of the full length promoter (FIG. 16F). […] Next it was tested whether c-Myc binding site was required for SIRT1's ability to induce TFAM promoter activity. Overexpression of SIRT1 in primary myoblasts lead to an increase in the full length TFAM promoter activity, however disruption of c-Myc binding site was sufficient to completely prevent the ability of SIRT1 to induce TFAM promoter activity (FIG. 16H). […]

primary myoblasts = assay: NMN in primary myoblasts with NMNAT1 knockdown, qPCR of mitochondrial-encoded genes; type: cell-based, mouse; details: cells with knockdown of NMNAT1 versus nontargeting shRNA
From the text: FIGS. 17A-17L reveal that increasing NAD+ levels rescues age-related mitochondrial and muscle dysfunction through a SIRT1-HIF-1α pathway. FIG. 17A depicts NAD+ levels in gastrocnemius of 3- and 24-month-old mice treated with either the vehicle (PBS) or NMN (n=5, *p<0.05 versus 3-month-old PBS animals, #p<0.05 versus 24-month-old PBS animals). FIG. 17B depicts ATP content in gastrocnemius of 6- and 22-month-old mice treated with either the vehicle (PBS) or NMN (n=6). FIG. 17C depicts expression of mitochondrial-encoded genes (ND1, Cytb, COX1 and ATP6) analyzed by qPCR in gastrocnemius of 6- and 22-month-old mice treated with either the vehicle (PBS) or NMN. Relative expression values were normalized to 6-months old PBS mice (n=6). […] FIG. 17F depicts expression of mitochondrial-encoded genes (ND1, Cytb, COX1 and ATP6) analyzed by qPCR in gastrocnemius of WT and Egln1 KO mice treated with either the vehicle (PBS) or NMN. […] FIG. 17H depicts expression of mitochondrial-enoded genes (ND1, Cytb, COX1 and ATP6) analyzed by qPCR in primary myoblasts WT cells infected with NMNAT1 or nontargeting shRNA treated with either the vehicle (PBS) or NMN. […] FIG. 17I depicts expression of mitochondrial-encoded genes (ND1, Cytb, COX1 and ATP6) analyzed by qPCR in gastrocnemius of WT and SIRT1 KO mice treated with either the vehicle (PBS) or NMN. […] Values are expressed as mean±SEM. […]

| Structure (SMILES) | full length TFAM promoter activity (TFAM promoter) | TFAM promoter activity, c-Myc consensus sequence mutation (TFAM promoter; in the absence of the c-Myc binding site) | ability of NMN to induce the expression of mitochondrial-encoded genes (primary myoblasts) |
| --- | --- | --- | --- |
| COC(=O)CNC(=O)C(=O)OC [DMOG, dimethyloxaloylglycine] | reduces | does not have an additive effect |  |
| NC(=O)c1ccc[n+]([C@@H]2O[C@H](COP(=O)([O-])O)[C@@H](O)[C@H]2O)c1 [NMN, nicotinamide mononucleotide] |  |  | completely abolishes |
